Laboratory results published in PubChem BioAssay AID192 (DTP/NCI, 2004).
Inconclusive results and toxic doses are left out.

Test system: BDF1 mice, B16 melanoma ip, median survival T/C
Test: NCI In Vivo Anticancer Drug Screen. Data for tumor model B16 Melanoma (intraperitoneal) in B6D2F1 (BDF1) mice
Settings: endpoint: median survival time, higher = longer survival
In short: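 Each result divides a survival or tumor-size measurement in the compound-treated group by the same measurement in the vehicle group.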

[1] = dose: 100.0 mg/kg/injection, schedule: Q04DX003 (ip), vehicle: Klucel (hydroxypropylcellulose) (HPC)
[2] = dose: 200.0 mg/kg/injection, schedule: Q04DX003 (ip), vehicle: Klucel (hydroxypropylcellulose) (HPC)
[3] = dose: 400.0 mg/kg/injection, schedule: Q04DX003 (ip), vehicle: Klucel (hydroxypropylcellulose) (HPC)
[4] = dose: 25.0 mg/kg/injection, schedule: Q01DX009 (ip), vehicle: Klucel (hydroxypropylcellulose) (HPC)
[5] = dose: 50.0 mg/kg/injection, schedule: Q01DX009 (ip), vehicle: Klucel (hydroxypropylcellulose) (HPC)
[6] = dose: 6.25 mg/kg/injection, schedule: Q01DX009 (ip), vehicle: saline with Tween-80
[7] = dose: 12.5 mg/kg/injection, schedule: Q01DX009 (ip), vehicle: saline with Tween-80
[8] = dose: 25.0 mg/kg/injection, schedule: Q01DX009 (ip), vehicle: saline with Tween-80
[9] = dose: 0.25 mg/kg/injection, schedule: Q01DX009 (ip), vehicle: saline
[10] = dose: 0.5 mg/kg/injection, schedule: Q01DX009 (ip), vehicle: saline
[11] = dose: 100.0 mg/kg/injection, schedule: Q01DX009 (ip), vehicle: Klucel (hydroxypropylcellulose) (HPC)
[12] = dose: 200.0 mg/kg/injection, schedule: Q01DX009 (ip), vehicle: Klucel (hydroxypropylcellulose) (HPC)
[13] = dose: 12.5 mg/kg/injection, schedule: Q01DX009 (ip), vehicle: saline
[14] = dose: 25.0 mg/kg/injection, schedule: Q01DX009 (ip), vehicle: saline
[15] = dose: 50.0 mg/kg/injection, schedule: Q01DX009 (ip), vehicle: saline
[16] = dose: 100.0 mg/kg/injection, schedule: Q01DX009 (ip), vehicle: saline
[17] = dose: 100.0 mg/kg/injection, schedule: Q04DX003 (ip), vehicle: saline with Tween-80
[18] = dose: 50.0 mg/kg/injection, schedule: Q01DX009 (ip), vehicle: saline with Tween-80
[19] = dose: 100.0 mg/kg/injection, schedule: Q01DX009 (ip), vehicle: saline with Tween-80
[20] = dose: 12.5 mg/kg/injection, schedule: Q01DX009 (ip), vehicle: other
[21] = dose: 25.0 mg/kg/injection, schedule: Q01DX009 (ip), vehicle: other
[22] = dose: 200.0 mg/kg/injection, schedule: Q01DX009 (ip), vehicle: saline
[23] = dose: 200.0 mg/kg/injection, schedule: Q01DX009 (ip), vehicle: saline with Tween-80

`Cc1ccc(S(=O)(=O)N2CCCC(=O)c3ccc(Cl)cc32)cc1` was tested, and the T/C [1] was 103 % of control, the T/C [2] was 99 % of control and the T/C [3] was 99 % of control.

In the case of `O=[N+]([O-])c1ccc2[nH]c(=S)sc2c1`, the T/C [4] was 97 % of control and the T/C [5] was 100 % of control.

In the case of `c1ccc2c(CC3=NCCN3)cccc2c1`, the T/C [6] was 102 % of control, the T/C [7] was 100 % of control and the T/C [8] was 102 % of control.

In the case of `C[C@@H]1CN1C1=CC(=O)C(N2C[C@H]2C)=CC1=O`, the T/C [9] was 104 % of control and the T/C [10] was 95 % of control.

In the case of `Nc1nc(-c2ccccc2N=NN2CCCC2)nc2ccccc12`, the T/C [4] was 95 % of control and the T/C [5] was 94 % of control.

In the case of `O=C(O)/C=C/C(=O)Nc1ccc(N=Nc2ccccc2)cc1`, the T/C [5] was 104 % of control, the T/C [11] was 105 % of control and the T/C [12] was 97 % of control.

With `COc1cc(C2=NCCc3cc4c(cc32)OCO4)cc(OC)c1OC` the T/C [13] was 112 % of control, the T/C [14] was 118 % of control and the T/C [15] was 104 % of control. For the same molecule, the T/C [16] was 101 % of control.

In the case of `CC1(O)CC2CCC1C2` (stereo not given), the T/C [17] was 102 % of control, the T/C (dose: 200.0 mg/kg/injection, schedule: Q04DX003 (ip), vehicle: saline with Tween-80) was 102 % of control and the T/C (dose: 400.0 mg/kg/injection, schedule: Q04DX003 (ip), vehicle: saline with Tween-80) was 100 % of control.

With `Cc1ccc(NC(=O)c2ccc(Cl)cc2Cl)cc1Cl` the T/C [1] was 102 % of control, the T/C [2] was 92 % of control and the T/C [3] was 95 % of control.

`O=C1NC(=O)C(Cc2ccccc2)(c2ccccc2)N1` (stereo not given) was tested, and the T/C [18] was 105 % of control and the T/C [19] was 102 % of control.

`Fc1ccc(/C=C2/c3cc(Cl)ccc3-c3c(Cl)cc(Cl)cc32)cc1` was tested, and the T/C [6] was 90 % of control, the T/C [7] was 90 % of control and the T/C [8] was 95 % of control.

For `CCN(CC)CCNCCN`, the T/C [13] was 94 % of control, the T/C [14] was 97 % of control and the T/C [15] was 94 % of control.

With `CC1(CC(C)(C)C2CCCCC2)OCCO1` the T/C [20] was 100 % of control, the T/C [21] was 93 % of control and the T/C (dose: 50.0 mg/kg/injection, schedule: Q01DX009 (ip), vehicle: other) was 90 % of control.

`CC(C)NNC(=O)C(N)CO` (stereo not given) was tested, and the T/C [14] was 104 % of control, the T/C [15] was 116 % of control and the T/C [16] was 104 % of control. For the same molecule, the T/C [22] was 111 % of control.

In the case of `ClCC1C(CCl)C2(Cl)C(Cl)=C(Cl)C1(Cl)C2(Cl)Cl` (stereo not given), the T/C [18] was 92 % of control, the T/C [19] was 93 % of control and the T/C [23] was 92 % of control.

`CCCCCCCCCCCCCCCCCCNC(=O)Oc1ccc(Cl)c(C)c1` was tested, and the T/C (dose: 100.0 mg/kg/injection, schedule: Q04DX003 (ip), vehicle: gum acacia) was 88 % of control and the T/C (dose: 200.0 mg/kg/injection, schedule: Q04DX003 (ip), vehicle: gum acacia) was 90 % of control.

For `Cc1ccc(C#N)s1`, the T/C (dose: 3.12 mg/kg/injection, schedule: Q01DX009 (ip), vehicle: other) was 104 % of control, the T/C (dose: 6.25 mg/kg/injection, schedule: Q01DX009 (ip), vehicle: other) was 109 % of control and the T/C [20] was 101 % of control. The T/C [21] was 108 % of control.

For `O=c1[nH]c(/C=C/c2ccc(Cl)cc2)nc(O)c1-c1ccc(Cl)cc1`, the T/C (dose: 75.0 mg/kg/injection, schedule: Q04DX003 (ip), vehicle: Klucel (hydroxypropylcellulose) (HPC)) was 110 % of control, the T/C (dose: 150.0 mg/kg/injection, schedule: Q04DX003 (ip), vehicle: Klucel (hydroxypropylcellulose) (HPC)) was 100 % of control and the T/C (dose: 300.0 mg/kg/injection, schedule: Q04DX003 (ip), vehicle: Klucel (hydroxypropylcellulose) (HPC)) was 87 % of control.

For `O=c1cc(-c2ccccc2)[nH]c(=S)[nH]1`, the T/C [19] was 114 % of control and the T/C [23] was 108 % of control.

For `CC1([CH2][Hg][I])CS(=O)(=O)CC(C)([CH2][Hg][I])O1` (stereo not given), the T/C (dose: 1.25 mg/kg/injection, schedule: Q01DX009 (ip), vehicle: saline sonified) was 97 % of control, the T/C (dose: 2.0 mg/kg/injection, schedule: Q01DX009 (ip), vehicle: saline with Tween-80) was 100 % of control and the T/C (dose: 2.5 mg/kg/injection, schedule: Q01DX009 (ip), vehicle: saline sonified) was 92 % of control. For the same molecule, the T/C (dose: 4.0 mg/kg/injection, schedule: Q01DX009 (ip), vehicle: saline sonified) was 102 % of control, the T/C (dose: 4.0 mg/kg/injection, schedule: Q01DX009 (ip), vehicle: saline with Tween-80) was 94 % of control and the T/C (dose: 8.0 mg/kg/injection, schedule: Q01DX009 (ip), vehicle: saline sonified) was 95 % of control. The T/C (dose: 8.0 mg/kg/injection, schedule: Q01DX009 (ip), vehicle: saline with Tween-80) was 100 % of control, the T/C (dose: 16.0 mg/kg/injection, schedule: Q01DX009 (ip), vehicle: saline sonified) was 90 % of control and the T/C (dose: 16.0 mg/kg/injection, schedule: Q01DX009 (ip), vehicle: saline with Tween-80) was 100 % of control. The T/C (dose: 32.0 mg/kg/injection, schedule: Q01DX009 (ip), vehicle: saline with Tween-80) was 94 % of control.

With `CCOc1c(Br)cc(Br)cc1/C=N/NS(=O)(=O)c1ccc(C)cc1` the T/C (dose: 12.5 mg/kg/injection, schedule: Q04DX003 (ip), vehicle: Klucel (hydroxypropylcellulose) (HPC)) was 102 % of control, the T/C [4] was 91 % of control and the T/C (dose: 25.0 mg/kg/injection, schedule: Q04DX003 (ip), vehicle: Klucel (hydroxypropylcellulose) (HPC)) was 107 % of control. The T/C [5] was 97 % of control, the T/C (dose: 50.0 mg/kg/injection, schedule: Q04DX003 (ip), vehicle: Klucel (hydroxypropylcellulose) (HPC)) was 104 % of control and the T/C (dose: 170.0 mg/kg/injection, schedule: Q04DX003 (ip), vehicle: Klucel (hydroxypropylcellulose) (HPC)) was 97 % of control.

For `Cc1cc(C)nc(NS(=O)(=O)c2ccc(N=Nc3nc4[nH]c(N)nc(=S)c4[nH]3)cc2)n1`, the T/C (dose: 0.19 mg/kg/injection, schedule: Q01DX009 (ip), vehicle: Klucel (hydroxypropylcellulose) (HPC)) was 115 % of control, the T/C (dose: 0.39 mg/kg/injection, schedule: Q01DX009 (ip), vehicle: Klucel (hydroxypropylcellulose) (HPC)) was 111 % of control and the T/C (dose: 0.78 mg/kg/injection, schedule: Q01DX009 (ip), vehicle: Klucel (hydroxypropylcellulose) (HPC)) was 105 % of control. For the same molecule, the T/C (dose: 1.56 mg/kg/injection, schedule: Q01DX009 (ip), vehicle: Klucel (hydroxypropylcellulose) (HPC)) was 102 % of control.

For `O=C1NC(=O)c2cccc3cccc1c23`, the T/C [17] was 94 % of control.

For `O=P(O)(O)OCCCl`, the T/C [1] was 100 % of control, the T/C [2] was 94 % of control and the T/C [3] was 103 % of control.

`COc1ccc(NC2=CC(C)(C(=O)O)OC2=O)cc1` (stereo not given) was tested, and the T/C (dose: 12.5 mg/kg/injection, schedule: Q04DX003 (ip), vehicle: saline with Tween-80) was 93 % of control, the T/C (dose: 25.0 mg/kg/injection, schedule: Q04DX003 (ip), vehicle: saline with Tween-80) was 102 % of control and the T/C (dose: 50.0 mg/kg/injection, schedule: Q04DX003 (ip), vehicle: saline with Tween-80) was 100 % of control.

With `CC1(C)CC(O)(C(Cl)c2ccccc2)C(=O)c2ccccc21` (stereo not given) the T/C [5] was 103 % of control, the T/C [11] was 95 % of control and the T/C [12] was 94 % of control. For the same molecule, the T/C (dose: 400.0 mg/kg/injection, schedule: Q01DX009 (ip), vehicle: Klucel (hydroxypropylcellulose) (HPC)) was 90 % of control.

`CN(C)CCCC(=O)O` was tested, and the T/C [16] was 98 % of control, the T/C [22] was 96 % of control and the T/C (dose: 400.0 mg/kg/injection, schedule: Q01DX009 (ip), vehicle: saline) was 93 % of control.

With `COC12C(COC(N)=O)C3=C(C(=O)C(C)=C(N)C3=O)N1CC1C2N1C` (stereo not given) the T/C [9] was 120 % of control, the T/C [10] was 123 % of control and the T/C (dose: 1.0 mg/kg/injection, schedule: Q01DX009 (ip), vehicle: saline) was 114 % of control. The T/C (dose: 2.0 mg/kg/injection, schedule: Q01DX009 (ip), vehicle: Klucel (hydroxypropylcellulose) (HPC)) was 106 % of control and the T/C (dose: 4.0 mg/kg/injection, schedule: Q01DX009 (ip), vehicle: Klucel (hydroxypropylcellulose) (HPC)) was 124 % of control.

`COc1cccc2c1C(=O)c1c(O)c3c(c(O)c1C2=O)C[C@@](O)(C(C)=O)C[C@@H]3OC1CC(N2CCC(OC)CC2)C(O)C(C)O1` (stereo not given in full) was tested, and the T/C (dose: 1.56 mg/kg/injection, schedule: Q01DX001 (ip), vehicle: water) was 123 % of control and the T/C (dose: 6.25 mg/kg/injection, schedule: Q01DX001 (ip), vehicle: water) was 162 % of control.
